Results reported in patent US7414071B2, “Methods of treatment with selective EP4 receptor agonists” (Pfizer Inc., priority 2002, dated 2008).

Tests used:
human EP3 receptor = molecular target: T1, human EP3 receptor (Homo sapiens, UniProt P43115); assay: Human EP3 receptor binding assay (displacement of 3H-prostaglandin E2 from 293S cell membranes); conditions: displacement of 3H-prostaglandin E2, 293S membranes
T1 construct: expressed in transfected cells; membranes
T1 sequence (P43115 1-390): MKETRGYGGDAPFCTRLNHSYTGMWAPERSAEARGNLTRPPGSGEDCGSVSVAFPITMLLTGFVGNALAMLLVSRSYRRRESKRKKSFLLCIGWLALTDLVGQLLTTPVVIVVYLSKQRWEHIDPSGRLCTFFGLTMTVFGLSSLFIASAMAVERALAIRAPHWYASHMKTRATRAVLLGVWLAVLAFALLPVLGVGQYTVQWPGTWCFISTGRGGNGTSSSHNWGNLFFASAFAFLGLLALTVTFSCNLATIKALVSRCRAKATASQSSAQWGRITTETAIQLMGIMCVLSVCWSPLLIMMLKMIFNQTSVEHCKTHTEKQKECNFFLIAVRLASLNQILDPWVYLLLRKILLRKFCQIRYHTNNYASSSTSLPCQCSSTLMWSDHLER
Excerpt: (§1) The compounds of Formula I, which are useful in the methods of the present invention, bind to the prostaglandin E2 type 4 receptor (EP4 receptor). The full length coding sequence for the human EP1 receptor is made in accordance with the procedure in Funk et al., Journal of Biological Chemistry, 1993, 268, 26767-26772. The full length rat EP2 receptor is made in accordance with the procedure in Nemoto et al., Prostaglandins and other Lipid Mediators, 1997, 54, 713-725. The full length coding sequence for the human EP3 receptor is made in accordance with the procedure in Regan et al., British Journal of Pharmacology, 1994, 112, 377-385. The full length coding sequence for the rat EP4 receptor is made in accordance with the procedure in Sando et al., Biochem. Biophys. Res. Comm. 1994, 200, 1329-1333. These full length receptors are used to prepare 293S cells expressing the human EP1, rat EP2, human EP3 or rat EP4 receptors.
(§2) The full length receptors described above are used to prepare 293S cells expressing the EP1, EP2, EP3, and EP4 receptors. […]
(§3) Membrane Preparation: All operations are performed at 4° C. […] Pelleted membranes are resuspended to 3-10 mg protein per ml, protein concentration being determined of the method of Bradford [Bradford, M., Anal. Biochem. 1976, 72, 248]. […]

human EP1 receptor = molecular target: T2, human EP1 receptor (Homo sapiens, UniProt P34995); assay: Human EP1 receptor binding assay (displacement of 3H-prostaglandin E2 from 293S cell membranes); conditions: displacement of 3H-prostaglandin E2, 293S membranes
T2 construct: expressed in transfected cells; membranes
T2 sequence (P34995 1-402): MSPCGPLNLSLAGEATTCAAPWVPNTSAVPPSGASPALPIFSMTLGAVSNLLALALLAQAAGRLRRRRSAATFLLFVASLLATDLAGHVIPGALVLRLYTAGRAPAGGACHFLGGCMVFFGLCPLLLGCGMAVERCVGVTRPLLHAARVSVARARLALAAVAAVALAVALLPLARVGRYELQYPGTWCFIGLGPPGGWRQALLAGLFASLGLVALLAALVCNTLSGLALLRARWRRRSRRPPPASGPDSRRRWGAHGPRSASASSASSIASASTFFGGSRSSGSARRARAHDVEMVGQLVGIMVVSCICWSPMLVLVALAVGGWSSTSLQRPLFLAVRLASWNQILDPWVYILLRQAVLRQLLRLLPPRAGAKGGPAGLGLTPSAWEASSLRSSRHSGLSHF
Excerpt: as §1, §2, §3

rat EP2 receptor = molecular target: T3, rat EP2 receptor (Rattus norvegicus, UniProt Q62928); assay: Rat EP2 receptor binding assay (displacement of 3H-prostaglandin E2 from 293S cell membranes); conditions: displacement of 3H-prostaglandin E2, 293S membranes
T3 construct: The full length rat EP2 receptor is made in accordance with the procedure in Nemoto et al; expressed in transfected cells; membranes
Excerpt: as §1, §2, §3

rat EP4 receptor = molecular target: T4, rat EP4 receptor (Rattus norvegicus, UniProt P43114); assay: Whole cell 3H-PGE2 binding with Scatchard analysis in 293S transfectants; conditions: cell line selected for compound screening
T4 construct: expressed in transfected cells
Description: Clonal cell lines expressing the maximal number of receptors are chosen following a whole cell ^3H-PGE2 binding assay using unlabeled PGE2 as a competitor. […] Constitutive expression of the receptor in parental 293-S cells is negligible. A stable cell line containing the rat EP4 receptor is grown in Dulbecco's Mosified Eagle Medium/F12 (DMEM/F12) containing 10% fetal bovine serum and G418 (500 μg/ml) to 80% confluency.

T3 sequence (Q62928 whole entry): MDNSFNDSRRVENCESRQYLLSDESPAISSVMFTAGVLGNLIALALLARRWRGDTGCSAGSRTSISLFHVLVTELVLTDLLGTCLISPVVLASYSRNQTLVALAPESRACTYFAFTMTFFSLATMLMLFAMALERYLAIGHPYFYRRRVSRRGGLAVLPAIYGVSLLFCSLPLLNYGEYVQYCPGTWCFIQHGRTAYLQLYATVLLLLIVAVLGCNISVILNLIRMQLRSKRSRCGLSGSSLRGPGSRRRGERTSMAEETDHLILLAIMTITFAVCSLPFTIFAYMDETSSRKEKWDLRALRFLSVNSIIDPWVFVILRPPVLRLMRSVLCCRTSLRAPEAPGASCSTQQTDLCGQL
T4 sequence (P43114 whole entry): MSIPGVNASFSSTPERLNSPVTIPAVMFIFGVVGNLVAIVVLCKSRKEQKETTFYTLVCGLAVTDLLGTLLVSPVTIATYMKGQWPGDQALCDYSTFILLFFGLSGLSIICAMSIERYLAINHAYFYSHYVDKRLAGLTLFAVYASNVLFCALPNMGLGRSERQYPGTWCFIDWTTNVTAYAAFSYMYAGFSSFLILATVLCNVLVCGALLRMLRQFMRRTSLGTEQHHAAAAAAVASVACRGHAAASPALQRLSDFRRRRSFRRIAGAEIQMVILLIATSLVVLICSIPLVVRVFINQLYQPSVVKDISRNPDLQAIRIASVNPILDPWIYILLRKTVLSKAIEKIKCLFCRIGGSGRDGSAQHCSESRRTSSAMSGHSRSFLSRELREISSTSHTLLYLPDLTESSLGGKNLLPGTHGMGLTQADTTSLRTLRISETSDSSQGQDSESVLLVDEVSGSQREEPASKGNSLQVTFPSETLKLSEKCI

IC50 (human EP3 receptor) [nM]	IC50 (human EP1 receptor) [nM]	IC50 (rat EP2 receptor) [nM]	Kd (rat EP4 receptor) [nM]	SMILES
> 1000	> 1000	463	–	O=C(O)c1ccc(CCCN2C(=O)CC[C@@H]2CC[C@@H](O)Cc2cccc(C(F)(F)F)c2)s1 [Compound 3M]
–	–	–	2.9	CCCCC[C@H](O)/C=C/[C@H]1[C@H](O)CC(=O)[C@@H]1C/C=C\CCCC(=O)O [PGE2, Prostaglandin E2]
